# Assay results taken from patent US20250346602A1, “LACTAM SUBSTITUTED IMIDAZOPYRIDAZINE IL-17A MODULATORS AND USES THEREOF” (DICE ALPHA, INC., priority 2022, published 2025).
# Target: T1, IL-17A/A (Homo sapiens, UniProt Q16552)
# T1 construct: purchased Genscript Z03228
# T1 sequence (Q16552 24-155): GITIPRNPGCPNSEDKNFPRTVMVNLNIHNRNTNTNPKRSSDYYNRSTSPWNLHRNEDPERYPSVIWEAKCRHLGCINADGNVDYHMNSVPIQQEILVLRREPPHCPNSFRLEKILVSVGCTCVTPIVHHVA
# Assay: IL-17A/A HEK-Blue cell assay
# Type: cell-based
# Details: HEK-Blue IL-17A reporter cell line (HEK 293), IL-17A/A stimulation, 20 hours incubation, SEAP read at A630
# Protocol: The HEK-Blue IL-17A reporter cell line (Fisher #NC1408637) was used for cell-based IL-17A/A inhibition assays. Cells were grown and prepared for assays according to the manufacturer's instructions. This cell line consists of HEK 293 cells that were designed to expressed IL-17RA, IL-17RC, and the ActI adapter molecule, the combination of which, when stimulated by IL-17A/A activates a NFκB promoter and drives expression of a recombinant Secreted Alkaline Phosphatase (SEAP) gene protein. Media from the cells is then added to a development reagent (Quanti-Blue Substrate, Fisher #NC9711613), and read at A630.
# Compounds were titrated in DMSO, with a top final compound concentration of 10 uM, 1 uM, or 0.3 uM, and added to the cells immediately before adding IL-17A/A (Genscript #Z03228). The cells, compound, and IL-17A/A were then incubated for 20 hours before media was removed for SEAP analysis. The resulting inhibition curve was then analyzed using Graphpad Prism 7.0, and IC50 values were determined using a 4-parameter nonlinear fit. DMSO was added to a universal final concentration of 0.1% to optimize background.
row,IC50,Compound
1,< 100 nM,"CCn1nccc1C(=O)N[C@H](c1cn2ncc(CC3C[C@@H](C(F)(F)F)NC3=O)cc2n1)C1CCCCCC1 (mixture of isomers) [Compound 207, N-((l S)-cycloheptyl(7-(((5S)-2-oxo-5-(trifluoromethyl)pyrrolidin-3-yl)methyl)imidazo[1,2-b]pyridazin-2-yl)methyl)-1-ethyl-1H-pyrazole-5-carboxamide]"
2,100 to 1000 nM,"CCn1nccc1C(=O)N[C@H](c1cn2nc(CC3C(=O)NCC3C(F)(F)F)ccc2n1)C(C1CC1)C1CC1 (single isomer, unassigned) [Compound 44]"
3,100 to 1000 nM,"CCn1nccc1C(=O)N[C@H](c1cn2nc(C[C@@H]3CCCNC3=O)ccc2n1)[C@H]1CC[C@H](C)CC1 [Compound 39, 1-ethyl-N—((S)-((1r,4S)-4-methylcyclohexyl)(6-(((S)-2-oxopiperidin-3-yl)methyl)imidazo[1,2-b]pyridazin-2-yl)methyl)-1H-pyrazole-5-carboxamide]"
4,> 1000 nM,"CCn1ncnc1C(=O)N[C@H](c1cn2nc(CC3C[C@@H](C(F)(F)F)CNC3=O)ccc2n1)[C@H]1CC[C@H](C)CC1 (stereo partly drawn) [Compound 166, N-((1S)-((1R.4S)-4-methylcyclohexyl)(6-(((5R)-2-oxo-5-(trifluoromethyl)piperidin-3-yl)methyl)imidazo[1,2-b]pyridazin-2-yl)methyl)-1-ethyl-1H-1,2,4-triazole-5-carboxamide]"
5,100 to 1000 nM,"O=C1NC[C@H](C(F)(F)F)CC1Cc1ccc2nc([C@@H](NC(=O)C3CC34CC(F)(F)C4)C3CCC(F)(F)CC3)cn2n1 (single isomer, unassigned) [Compound 131]"
6,100 to 1000 nM,"CCn1nccc1C(=O)N[C@H](c1cn2nc(CC3C[C@@H](C(F)(F)F)NC3=O)ccc2n1)C(C1CC1)C1CC1 (single isomer, unassigned) [Compound 8]"
7,> 1000 nM,"CCn1nccc1C(=O)N[C@H](c1cn2nc(CC3CCC(C(F)(F)F)NC3=O)ccc2n1)C(C1CC1)C1CC1 (single isomer, unassigned) [Compound 42]"
8,< 100 nM,"CCn1nccc1C(=O)N[C@H](c1cn2nc(CC3C[C@@H](C(F)(F)F)CNC3=O)c(C(C)OC)cc2n1)C1CCC(F)(F)CC1 (stereo partly drawn) [Compound 183, N-((1S)-(4,4-difluorocyclohexyl)(7-(1-methoxyethyl)-6-(((5R)-2-oxo-5-(trifluoromethyl)piperidin-3-yl)methyl)imidazo[1,2-b]pyridazin-2-yl)methyl)-1-ethyl-1H-pyrazole-5-carboxamide]"
9,> 1000 nM,"CCn1nccc1C(=O)N[C@H](c1cn2nc(CC3CCNC3=O)ccc2n1)C1CCC(F)(F)CC1 (single isomer, unassigned) [Compound 1]"
10,< 100 nM,"O=C(N[C@H](c1cn2nc(CC3C[C@@H](C(F)(F)F)CNC3=O)ccc2n1)C1CCC(F)(F)CC1)c1ccnn1C1CC1(F)F (single isomer, unassigned) [Compound 98]"
11,> 1000 nM,"Cc1n[nH]cc1C(=O)N[C@H](c1cn2nc(CC3C[C@@H](C(F)(F)F)CNC3=O)ccc2n1)C1CCC(F)(F)CC1 (stereo partly drawn) [Compound 135, N-((1S)-(4,4-difluorocyclohexyl)(6-(((5R)-2-oxo-5-(trifluoromethyl)piperidin-3-yl)methyl)imidazo[1,2-b]pyridazin-2-yl)methyl)-3-methyl-1H-pyrazole-4-carboxamide]"

# Further lines, the molecule ahead of its results:
row,Compound,IC50
1,"CCn1nccc1C(=O)N[C@H](c1cn2nc(CC3C[C@H](C(F)(F)F)CNC3=O)c(C)cc2n1)C1CCC(F)(F)CC1 (single isomer, unassigned) [Compound 92]",< 100 nM
2,"CC[C@@H]1CC(Cc2ccc3nc([C@@H](NC(=O)c4ccnn4CC)[C@H]4CC[C@H](C)CC4)cn3n2)C(=O)N1 (stereo partly drawn) [Compound 59, 1-ethyl-N-((1S)-(6-(((5R)-5-ethyl-2-oxopyrrolidin-3-yl)methyl)imidazo[1,2-b]pyridazin-2-yl)((1r,4S)-4-methylcyclohexyl)methyl)-1H-pyrazole-5-carboxamide]",100 to 1000 nM
3,"CCn1nccc1C(=O)NC(c1cn2nc(CC3CC(C)CNC3=O)ccc2n1)C1CCC(C)CC1 (single isomer, unassigned) [Compound 51]",100 to 1000 nM
4,"CCc1nonc1C(=O)N[C@H](c1cn2nc(CC3C[C@@H](C(F)(F)F)CNC3=O)ccc2n1)[C@H]1CC[C@H](C)CC1 (stereo partly drawn) [Compound 141, 4-Ethyl-N-((1S)-((1R.4S)-4-methylcyclohexyl)(6-(((5R)-2-oxo-5-(trifluoromethyl)piperidin-3-yl)methyl)imidazo[1,2-b]pyridazin-2-yl)methyl)-1,2,5-oxadiazole-3-carboxamide]",< 100 nM
5,"O=C(N[C@H](c1cn2nc(CC3C[C@@H](C(F)(F)F)CNC3=O)ccc2n1)C1CCC(F)(F)CC1)c1conc1C(F)(F)C1CC1 (stereo partly drawn) [Compound 125, 3-(cyclopropyldifluoromethyl)-N-((1S)-(4,4-difluorocyclohexyl)(6-(((5R)-2-oxo-5-(trifluoromethyl)piperidin-3-yl)methyl)imidazo[1,2-b]pyridazin-2-yl)methyl)isoxazole-4-carboxamide]",100 to 1000 nM
6,"CCn1nccc1C(=O)N[C@H](c1cn2nc(C(COC)C3C[C@@H](C(F)(F)F)CNC3=O)ccc2n1)C(C1CC1)C1CC1 (single isomer, unassigned) [Compound 62]",100 to 1000 nM
7,"CCn1nccc1C(=O)N[C@H](c1cn2nc(C(C)C3C[C@@H](C(F)(F)F)CNC3=O)ccc2n1)C(C1CC1)C1CC1 (single isomer, unassigned) [Compound 56]",> 1000 nM
8,"CCn1nccc1C(=O)N[C@H](c1cn2ncc(CC3CCCNC3=O)cc2n1)C1CCCCCC1 (mixture of isomers) [Compound 206, N-((1S)-cycloheptyl(7-((2-oxopiperidin-3-yl)methyl)imidazo[1,2-b]pyridazin-2-yl)methyl)-1-ethyl-1H-pyrazole-5-carboxamide]",> 1000 nM
9,"C[C@H]1CC[C@H]([C@H](NC(=O)c2nonc2N)c2cn3nc(CC4C[C@@H](C(F)(F)F)CNC4=O)ccc3n2)CC1 (stereo partly drawn) [Compound 164, 4-amino-N-((1S)—((1R.4S)-4-methylcyclohexyl)(6-(((5R)-2-oxo-5-(trifluoromethyl)piperidin-3-yl)methyl)imidazo[1,2-b]pyridazin-2-yl)methyl)-1,2,5-oxadiazole-3-carboxamide]",> 1000 nM
10,"CCn1nccc1C(=O)N[C@H](c1cn2nc(CC3C[C@@H](C(F)(F)F)CNC3=O)ccc2n1)C12CC(C)(C1)C2 (stereo partly drawn) [Compound 178, 1-ethyl-N-((1S)-(3-methylbicyclo[1.1.1]pentan-1-yl)(6-(((5R)-2-oxo-5-(trifluoromethyl)piperidin-3-yl)methyl)imidazo[1,2-b]pyridazin-2-yl)methyl)-1H-pyrazole-5-carboxamide]",> 1000 nM
11,"O=C(N[C@H](c1cn2nc(CC3C[C@@H](C(F)(F)F)CNC3=O)ccc2n1)[C@@H]1CCCC(F)(F)C1)c1conc1C1CC1 (stereo partly drawn) [Compound 147, 3-cyclopropyl-N-((1S)—((R)-3,3-difluorocyclohexyl)(6-(((5R)-2-oxo-5-(trifluoromethyl)piperidin-3-yl)methyl)imidazo[1,2-b]pyridazin-2-yl)methyl)isoxazole-4-carboxamide]",100 to 1000 nM
12,"CCn1nccc1C(=O)N[C@H](c1cn2nc(CC3C[C@@H](C(F)(F)F)CNC3=O)ccc2n1)[C@H]1CCCC(F)(F)C1 (stereo partly drawn) [Compound 142, N-((1S)—((S)-3,3-difluorocyclohexyl)(6-(((5R)-2-oxo-5-(trifluoromethyl)piperidin-3-yl)methyl)imidazo[1,2-b]pyridazin-2-yl)methyl)-1-ethyl-1H-pyrazole-5-carboxamide]",< 100 nM
